The first test deals with T1, human TLR9 (Homo sapiens, UniProt Q9NR96).
T1 construct: host or cells: HEK-Blue cells
T1 sequence (Q9NR96 26-1032): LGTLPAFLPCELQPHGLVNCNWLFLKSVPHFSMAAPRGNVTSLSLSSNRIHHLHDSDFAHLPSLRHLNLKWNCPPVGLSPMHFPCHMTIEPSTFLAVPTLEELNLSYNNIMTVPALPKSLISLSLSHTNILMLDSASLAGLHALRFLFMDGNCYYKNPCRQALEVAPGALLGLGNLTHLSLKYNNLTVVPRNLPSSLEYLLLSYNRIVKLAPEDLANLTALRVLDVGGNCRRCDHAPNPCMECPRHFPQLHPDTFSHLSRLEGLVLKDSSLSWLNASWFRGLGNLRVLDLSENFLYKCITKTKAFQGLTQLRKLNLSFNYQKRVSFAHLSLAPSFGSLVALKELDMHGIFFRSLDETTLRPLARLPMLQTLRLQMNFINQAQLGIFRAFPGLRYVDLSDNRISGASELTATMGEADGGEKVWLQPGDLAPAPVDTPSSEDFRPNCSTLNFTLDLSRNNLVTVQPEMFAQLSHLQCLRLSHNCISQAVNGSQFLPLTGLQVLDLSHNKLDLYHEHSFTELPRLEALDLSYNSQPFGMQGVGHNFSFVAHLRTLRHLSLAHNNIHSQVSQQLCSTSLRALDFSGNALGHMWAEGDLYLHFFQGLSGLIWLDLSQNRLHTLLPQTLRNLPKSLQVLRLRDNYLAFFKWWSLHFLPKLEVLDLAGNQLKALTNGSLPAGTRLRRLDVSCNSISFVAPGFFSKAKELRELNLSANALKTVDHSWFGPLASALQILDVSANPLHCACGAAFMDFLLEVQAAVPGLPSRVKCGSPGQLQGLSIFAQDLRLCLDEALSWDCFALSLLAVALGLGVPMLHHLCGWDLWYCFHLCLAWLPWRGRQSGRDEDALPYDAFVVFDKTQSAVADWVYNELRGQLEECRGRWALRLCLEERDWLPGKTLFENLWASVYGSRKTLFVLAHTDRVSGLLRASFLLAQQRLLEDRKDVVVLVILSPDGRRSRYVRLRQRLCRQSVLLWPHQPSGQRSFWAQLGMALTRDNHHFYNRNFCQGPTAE
Kind of test: TLR9 inhibition reporter assay (HEK-Blue cells, SEAP reporter). The format is cell-based. Conditions: HEK-Blue cells overexpressing human TLR9, stimulated with ODN2006 5 nM, 22 hour incubation. As for the experimental part: (§1) TLR7/8/9 Inhibition Reporter Assays
HEK-Blue™-cells (Invivogen) overexpressing human TLR7, TLR8 or TLR9 receptors were used for screening inhibitors of these receptors using an inducible SEAP (secreted embryonic alkaline phosphatase) reporter gene under the control of the IFN-β minimal promoter fused to five NF-κB and AP-1-binding sites. Briefly, cells are seeded into Greiner 384 well plates (15000 cells per well for TLR7, 20,000 for TLR8 and 25,000 for TLR9) and then treated with test compounds in DMSO to yield a final dose response concentration range of 0.05 nM-50 μM. […] After a 22 hour incubation at 37° C., 5% CO2, SEAP levels are determined with the addition of HEK-Blue™ Detection reagent (Invivogen), a cell culture medium that allows for detection of SEAP, according to manufacturer's specifications. The percent inhibition is determined as the % reduction in the HEK-Blue signal present in wells treated with agonist plus DMSO alone compared to wells treated with a known inhibitor.
(In general: Reporter assays use an easily measured gene product as a stand-in for the process of interest.)
As a reminder, the IC50 is the concentration that inhibits the measured activity by half. Low readings indicate higher potency, high ones lower potency. On to `Cc1nc(-c2ccc(CN3C[C@H]4CC[C@@H]3CN4CC(C)(C)CO)cc2)cc2c1cc(-c1ccc(S(C)(=O)=O)cc1)n2C` [Example 45, 3-((1R,4R)-5-(4-(1,4-Dimethyl-2-(4-(methylsulfonyl)phenyl)-1H-pyrrolo[3,2-c]pyridin-6-yl)benzyl)-2,5-diazabicyclo[2.2.2]octan-2-yl)-2,2-dimethylpropan-1-ol], for which 68 nM corresponded to half-maximal inhibition (IC50). Same read-out and setting: the same measure for `Cc1nc(-c2ccc(N3CCN(C4CCOCC4)CC3)c(F)c2F)cc2c1cc(-c1ccc(S(C)(=O)=O)cc1)n2C` [Example 83, 6-(2,3-difluoro-4-(4-(tetrahydro-2H-pyran-4-yl)piperazin-1-yl)phenyl)-1,4-dimethyl-2-(4-(methylsulfonyl)phenyl)-1H-pyrrolo[3,2-c]pyridine]: 2300 nM. `Cc1nc(-c2cc(F)c(N3CCN(CC(C)C)CC3)c(F)c2)cc2c1cc(-c1ccc(S(C)(=O)=O)cc1)n2C` [Example 84, 6-(3,5-difluoro-4-(4-isobutylpiperazin-1-yl)phenyl)-1,4-dimethyl-2-(4-(methylsulfonyl)phenyl)-1H-pyrrolo[3,2-c]pyridine] had an IC50 of 626 nM.

Compound `Cc1nc(-c2ccc(N3CCS(=O)(=O)CC3)cc2)cc2c1cc(-c1ccc(S(C)(=O)=O)cc1)n2C` [Example 85, 4-(4-(1,4-dimethyl-2-(4-(methylsulfonyl)phenyl)-1H-pyrrolo[3,2-c]pyridin-6-yl)phenyl)thiomorpholine 1,1-dioxide] returned an IC50 of 2400 nM.

In turn, `Cc1nc(-c2ccc(N3CCOCC3)cc2)cc2c1cc(-c1ccc(S(C)(=O)=O)cc1)n2C` [Example 86, 4-(4-(1,4-dimethyl-2-(4-(methylsulfonyl)phenyl)-1H-pyrrolo[3,2-c]pyridin-6-yl)phenyl)morpholine] displayed an IC50 of 1070 nM. Still for that read-out and setting: as for `Cc1nc(-c2ccc(C3(O)CC4CCC(C3)N4C(C)C)cc2F)cc2c1cc(-c1ccc(S(C)(=O)=O)cc1)n2C` [Example 103, (1R,3r,5S)-3-(4-(1,4-dimethyl-2-(4-(methylsulfonyl)phenyl)-1H-pyrrolo[3,2-c]pyridin-6-yl)-3-fluorophenyl)-8-isopropyl-8-azabicyclo[3.2.1]octan-3-ol], the figure is 296 nM; as for `Cc1nc(-c2ccc(N3CCN(CCc4ccc(I)cc4)CC3)cc2)cc2c1cc(-c1ccc(S(C)(=O)=O)cc1)n2C` [Example 110, 6-(4-(4-(4-iodophenethyl)piperazin-1-yl)phenyl)-1,4-dimethyl-2-(4-(methylsulfonyl)phenyl)-1H-pyrrolo[3,2-c]pyridine], 58 nM; as for `Cc1nc(-c2ccc(N3CCN(CCc4ccc(Br)cc4)CC3)cc2)cc2c1cc(-c1ccc(S(C)(=O)=O)cc1)n2C` [Example 111, 6-(4-(4-(4-bromophenethyl)piperazin-1-yl)phenyl)-1,4-dimethyl-2-(4-(methylsulfonyl)phenyl)-1H-pyrrolo[3,2-c]pyridine], 113 nM.

In turn, `Cc1nc(-c2ccc(N3CCN(Cc4ccc(I)cc4)CC3)cc2)cc2c1cc(-c1ccc(S(C)(=O)=O)cc1)n2C` [Example 112, 6-(4-(4-(4-iodobenzyl)piperazin-1-yl)phenyl)-1,4-dimethyl-2-(4-(methylsulfonyl)phenyl)-1H-pyrrolo[3,2-c]pyridine] returned an IC50 of 87 nM. The same measure, in the same setting: as for `Cc1nc(-c2ccc(N3CCN(Cc4ccc(Br)cc4)CC3)cc2)cc2c1cc(-c1ccc(S(C)(=O)=O)cc1)n2C` [Example 113, 6-(4-(4-(4-bromobenzyl)piperazin-1-yl)phenyl)-1,4-dimethyl-2-(4-(methylsulfonyl)phenyl)-1H-pyrrolo[3,2-c]pyridine], the figure is 153 nM; as for `Cc1nc(-c2ccc(CN3CCN(CCC(C)(C)O)CC3)cc2)cc2c1cc(-c1ccc(S(C)(=O)=O)cc1)n2C(F)F` [Example 117, 4-[4-[[4-[1-(difluoromethyl)-4-methyl-2-(4-methylsulfonylphenyl)pyrrolo[3,2-c]pyridin-6-yl]phenyl]methyl]piperazin-1-yl]-2-methyl-butan-2-ol], 557 nM.

`COc1nc(-c2ccc(N3CCN(C(C)C)CC3)cc2)cc2c1cc(-c1ccc(S(C)(=O)=O)cc1)n2C` [Example 119, 6-[4-(4-isopropylpiperazin-1-yl)phenyl]-4-methoxy-1-methyl-2-(4-methylsulfonylphenyl) pyrrolo[3,2-c]pyridine]: half-maximal inhibition (IC50) required 543 nM. On the same count and under the same terms, as for `COc1nc(-c2ccc(CN3CCN(C(C)C)CC3)cc2)cc2c1cc(-c1ccc(S(C)(=O)=O)cc1)n2C` [Example 126, 6-(4-((4-isopropylpiperazin-1-yl)methyl)phenyl)-4-methoxy-1-methyl-2-(4-(methylsulfonyl)phenyl)-1H-pyrrolo[3,2-c]pyridine], the figure is 1260 nM; as for `CC(C)N1CCN(Cc2ccc(-c3cc4c(cc(-c5ccc(S(C)(=O)=O)cc5)n4C)c(N4CCOCC4)n3)cc2)CC1` [Example 127, 4-(6-(4-((4-isopropylpiperazin-1-yl)methyl)phenyl)-1-methyl-2-(4-(methylsulfonyl)phenyl)-1H-pyrrolo[3,2-c]pyridin-4-yl)morpholine], 422 nM.

The target of the next test is T2, human TLR7 (Homo sapiens, UniProt Q9NYK1).
T2 construct: host or cells: HEK-Blue cells
T2 sequence (Q9NYK1 27-1049): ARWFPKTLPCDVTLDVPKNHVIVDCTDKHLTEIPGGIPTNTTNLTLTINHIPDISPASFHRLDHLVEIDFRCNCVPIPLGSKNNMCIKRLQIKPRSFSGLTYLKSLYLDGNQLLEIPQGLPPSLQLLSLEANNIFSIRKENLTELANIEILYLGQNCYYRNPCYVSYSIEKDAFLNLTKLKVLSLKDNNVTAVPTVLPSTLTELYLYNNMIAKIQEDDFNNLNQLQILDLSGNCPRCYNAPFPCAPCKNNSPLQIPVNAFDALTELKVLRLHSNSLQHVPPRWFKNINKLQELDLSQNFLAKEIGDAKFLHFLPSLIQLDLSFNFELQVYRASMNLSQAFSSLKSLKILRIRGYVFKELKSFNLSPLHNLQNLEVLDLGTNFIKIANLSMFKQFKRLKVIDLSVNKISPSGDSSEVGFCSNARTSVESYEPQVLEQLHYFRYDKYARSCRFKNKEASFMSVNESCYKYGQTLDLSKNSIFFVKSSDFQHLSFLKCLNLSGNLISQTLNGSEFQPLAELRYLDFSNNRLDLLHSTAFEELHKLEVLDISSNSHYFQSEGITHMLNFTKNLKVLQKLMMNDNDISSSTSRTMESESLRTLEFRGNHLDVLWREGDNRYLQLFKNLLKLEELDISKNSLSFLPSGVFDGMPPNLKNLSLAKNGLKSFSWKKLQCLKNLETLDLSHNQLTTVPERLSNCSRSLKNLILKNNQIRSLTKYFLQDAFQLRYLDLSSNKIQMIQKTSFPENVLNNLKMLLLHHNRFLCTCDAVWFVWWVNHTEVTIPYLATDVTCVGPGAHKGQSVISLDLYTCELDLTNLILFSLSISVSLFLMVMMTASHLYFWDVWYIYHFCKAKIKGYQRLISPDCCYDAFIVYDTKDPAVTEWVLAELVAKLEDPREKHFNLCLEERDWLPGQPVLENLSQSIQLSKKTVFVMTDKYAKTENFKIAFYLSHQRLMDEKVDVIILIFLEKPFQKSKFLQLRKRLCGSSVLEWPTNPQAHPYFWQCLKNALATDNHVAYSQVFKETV
Kind of test: TLR7 inhibition reporter assay (HEK-Blue cells, SEAP reporter). In kind it is cell-based. To be noted: HEK-Blue cells overexpressing human TLR7, stimulated with gardiquimod 7.5 μM, 22 hour incubation. The method, then:
as §1
HEK-Blue™-cells (Invivogen) overexpressing human TLR7, TLR8 or TLR9 receptors were used for screening inhibitors of these receptors using an inducible SEAP (secreted embryonic alkaline phosphatase) reporter gene under the control of the IFN-β minimal promoter fused to five NF-κB and AP-1-binding sites. Briefly, cells are seeded into Greiner 384 well plates (15000 cells per well for TLR7, 20,000 for TLR8 and 25,000 for TLR9) and then treated with test compounds in DMSO to yield a final dose response concentration range of 0.05 nM-50 μM. After a 30 minute compound pre-treatment at room temperature, the cells are then stimulated with a TLR7 ligand (gardiquimod at a final concentration of 7.5 μM), TLR8 ligand (R848 at a final concentration of 15.9 μM) or TLR9 ligand (ODN2006 at a final concentration of 5 nM) to activate NF-κB and AP-1 which induce the production of SEAP. After a 22 hour incubation at 37° C., 5% CO2, SEAP levels are determined with the addition of HEK-Blue™ Detection reagent (Invivogen), a cell culture medium that allows for detection of SEAP, according to manufacturer's specifications. The percent inhibition is determined as the % reduction in the HEK-Blue signal present in wells treated with agonist plus DMSO alone compared to wells treated with a known inhibitor.
Consider `Cc1nc(-c2ccc(CN3C[C@H]4CC[C@@H]3CN4CC(C)(C)CO)cc2)cc2c1cc(-c1ccc(S(C)(=O)=O)cc1)n2C` [Example 45, 3-((1R,4R)-5-(4-(1,4-Dimethyl-2-(4-(methylsulfonyl)phenyl)-1H-pyrrolo[3,2-c]pyridin-6-yl)benzyl)-2,5-diazabicyclo[2.2.2]octan-2-yl)-2,2-dimethylpropan-1-ol], for which 750 nM corresponded to half-maximal inhibition (IC50).

For `Cc1nc(-c2ccc(CN3CCN(CCC(C)(C)O)CC3)cc2)cc2c1cc(-c1ccc(S(C)(=O)=O)cc1)n2C(F)F` [Example 117, 4-[4-[[4-[1-(difluoromethyl)-4-methyl-2-(4-methylsulfonylphenyl)pyrrolo[3,2-c]pyridin-6-yl]phenyl]methyl]piperazin-1-yl]-2-methyl-butan-2-ol], half-maximal inhibition (IC50) required 7800 nM.

The values are drawn from US12590091B2, “1H-pyrrolo[3,2-C]pyridine and 1H-pyrrolo[2,3-C]pyridine derivatives as TLR9 inhibitors for the treatment of fibrosis” (BRISTOL-MYERS SQUIBB COMPANY, priority 2020, dated 2026).
